Measured values from patent US11279681B2, “3-alkyl bicyclic [4,5,0] hydroxamic acids as HDAC inhibitors” (Valo Health, Inc., priority 2015, dated 2022).

Target: T1, HDAC6 (Homo sapiens, UniProt Q9UBN7)
T1 sequence (Q9UBN7 1-1215): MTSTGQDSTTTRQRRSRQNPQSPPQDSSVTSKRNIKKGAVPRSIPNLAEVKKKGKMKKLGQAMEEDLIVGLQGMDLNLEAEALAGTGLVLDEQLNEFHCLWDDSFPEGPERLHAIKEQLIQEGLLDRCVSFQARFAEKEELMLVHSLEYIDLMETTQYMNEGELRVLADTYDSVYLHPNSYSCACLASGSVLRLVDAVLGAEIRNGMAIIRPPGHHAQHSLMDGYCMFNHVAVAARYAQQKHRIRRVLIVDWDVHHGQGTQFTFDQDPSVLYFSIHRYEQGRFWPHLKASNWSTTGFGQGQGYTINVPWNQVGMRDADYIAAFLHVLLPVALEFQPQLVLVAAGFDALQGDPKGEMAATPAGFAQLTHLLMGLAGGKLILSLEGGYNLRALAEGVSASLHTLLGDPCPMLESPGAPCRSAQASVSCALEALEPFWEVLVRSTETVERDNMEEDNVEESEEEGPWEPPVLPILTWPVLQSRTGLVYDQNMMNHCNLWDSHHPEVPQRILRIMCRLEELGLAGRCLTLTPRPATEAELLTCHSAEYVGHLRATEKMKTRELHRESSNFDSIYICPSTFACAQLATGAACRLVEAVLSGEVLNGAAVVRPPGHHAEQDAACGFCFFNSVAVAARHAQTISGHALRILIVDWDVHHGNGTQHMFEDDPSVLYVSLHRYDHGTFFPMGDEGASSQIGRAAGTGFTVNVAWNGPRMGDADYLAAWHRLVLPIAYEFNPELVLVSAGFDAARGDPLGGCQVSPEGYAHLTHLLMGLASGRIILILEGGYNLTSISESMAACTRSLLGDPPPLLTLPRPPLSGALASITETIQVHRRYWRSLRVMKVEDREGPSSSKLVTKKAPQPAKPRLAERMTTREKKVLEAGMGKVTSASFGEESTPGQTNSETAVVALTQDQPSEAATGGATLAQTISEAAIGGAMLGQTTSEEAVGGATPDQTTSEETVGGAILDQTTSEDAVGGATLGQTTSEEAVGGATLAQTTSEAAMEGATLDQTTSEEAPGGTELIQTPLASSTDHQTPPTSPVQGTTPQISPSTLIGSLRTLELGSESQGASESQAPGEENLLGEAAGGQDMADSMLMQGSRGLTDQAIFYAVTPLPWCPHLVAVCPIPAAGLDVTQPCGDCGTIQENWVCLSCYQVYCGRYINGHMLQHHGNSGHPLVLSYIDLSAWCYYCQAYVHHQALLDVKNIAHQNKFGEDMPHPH
Test: In vitro histone deacetylase assay: enzymatic HDAC6 electrophoretic mobility shift assay
Assay type: biochemical
Conditions: full length human recombinant HDAC6, 1 nM enzyme, 2 μM peptide substrate RHKK(Ac)-NH2, 25° C.; read-out: Inhibitory Concentration (IC50) Values for Representative Compounds against HDAC6, Activity Range

Compound	IC50
COC1CCN(C(=O)N2CCOc3cc(C(=O)NO)ccc3C2)CC1 [N-hydroxy-4-(4-methoxypiperidine-1-carbonyl)-2,3,4,5-tetrahydrobenzo[f][1,4]oxazepine-8-carboxamide]	100 to 500 nM
CN1CCN(C(=O)N2CCOc3cc(C(=O)NO)ccc3C2)CC1 [N-hydroxy-4-(4-methylpiperazine-1-carbonyl)-2,3,4,5-tetrahydrobenzo[f][1,4]oxazepine-8-carboxamide]	> 500 nM
O=C(NO)c1ccc2c(c1)OCCN(C(=O)N1Cc3ccccc3C1)C2 [N-hydroxy-4-(isoindoline-2-carbonyl)-2,3,4,5-tetrahydrobenzo[f][1,4]oxazepine-8-carboxamide]	≤ 100 nM
O=C(NO)c1ccc2c(c1)OCCN(C(=O)N1CCOCC1)C2 [N-hydroxy-4-(morpholine-4-carbonyl)-2,3,4,5-tetrahydrobenzo[f][1,4]oxazepine-8-carboxamide]	100 to 500 nM
Cc1ccc(N2CCOc3cc(C(=O)NO)ccc3C2)cc1 [N-hydroxy-4-(p-tolyl)-2,3,4,5-tetrahydrobenzo[f][1,4]oxazepine-8-carboxamide]	100 to 500 nM
O=C(NO)c1ccc2c(c1)OCCN(c1ccccn1)C2 [N-hydroxy-4-(pyridin-2-yl)-2,3,4,5-tetrahydrobenzo[f][1,4]oxazepine-8-carboxamide]	100 to 500 nM
O=C(NO)c1ccc2c(c1)OCCN(c1cccnc1)C2 [N-hydroxy-4-(pyridin-3-yl)-2,3,4,5-tetrahydrobenzo[f][1,4]oxazepine-8-carboxamide]	100 to 500 nM
O=C(NO)c1ccc2c(c1)OCCN(c1ccncc1)C2 [N-hydroxy-4-(pyridin-4-yl)-2,3,4,5-tetrahydrobenzo[f][1,4]oxazepine-8-carboxamide]	> 500 nM
O=C(NO)c1ccc2c(c1)OCCN(C(=O)N1CCCC1)C2 [N-hydroxy-4-(pyrrolidine-1-carbonyl)-2,3,4,5-tetrahydrobenzo[f][1,4]oxazepine-8-carboxamide]	≤ 100 nM
CN1CCOc2cc(C(=O)NO)ccc2C1 [N-hydroxy-4-methyl-2,3,4,5-tetrahydrobenzo[f][1,4]oxazepine-8-carboxamide]	100 to 500 nM
CN1Cc2ccc(C(=O)NO)cc2OCC12CC2 [N-hydroxy-4-methyl-4,5-dihydro-2H-spiro[benzo[f][1,4]oxazepine-3,1′-cyclopropane]-8-carboxamide]	≤ 100 nM
O=C(NO)c1ccc2c(c1)OCCN(c1ccccc1)C2 [N-hydroxy-4-phenyl-2,3,4,5-tetrahydrobenzo[f][1,4]oxazepine-8-carboxamide]	> 500 nM
O=C(NO)c1ccc2c(c1)OCC1(CC1)N(c1ccccc1)C2 [N-hydroxy-4-phenyl-4,5-dihydro-2H-spiro[benzo[f][1,4]oxazepine-3,1′-cyclopropane]-8-carboxamide]	100 to 500 nM
C[C@H]1COc2cc(C(=O)NO)ccc2CN1C(=O)OC1CCC1 [cyclobutyl(S)-8-(hydroxycarbamoyl)-3-methyl-2,3-dihydrobenzo[f][1,4]oxazepine-4(5H)-carboxylate]	≤ 100 nM
C[C@H]1COc2cc(C(=O)NO)ccc2CN1C(=O)OC1CCCCC1 [cyclohexyl(S)-8-(hydroxycarbamoyl)-3-methyl-2,3-dihydrobenzo[f][1,4]oxazepine-4(5H)-carboxylate]	≤ 100 nM
C[C@H]1COc2cc(C(=O)NO)ccc2CN1C(=O)OC1CCCC1 [cyclopentyl(S)-8-(hydroxycarbamoyl)-3-methyl-2,3-dihydrobenzo[f][1,4]oxazepine-4(5H)-carboxylate]	≤ 100 nM
CCOC(=O)N1Cc2ccc(C(=O)NO)cc2OC[C@@H]1C [ethyl(S)-8-(hydroxycarbamoyl)-3-methyl-2,3-dihydrobenzo[f][1,4]oxazepine-4(5H)-carboxylate]	≤ 100 nM
CC(C)OC(=O)N1Cc2ccc(C(=O)NO)cc2OC[C@@H]1C [isopropyl(S)-8-(hydroxycarbamoyl)-3-methyl-2,3-dihydrobenzo[f][1,4]oxazepine-4(5H)-carboxylate]	≤ 100 nM
COC(=O)N1Cc2ccc(C(=O)NO)cc2OC[C@@H]1C [methyl(S)-8-(hydroxycarbamoyl)-3-methyl-2,3-dihydrobenzo[f][1,4]oxazepine-4(5H)-carboxylate]	≤ 100 nM
C[C@H]1COc2cc(C(=O)NO)ccc2CN1C(=O)OC1CCOCC1 [tetrahydro-2H-pyran-4-yl(S)-8-(hydroxycarbamoyl)-3-methyl-2,3-dihydrobenzo[f][1,4]oxazepine-4(5H)-carboxylate]	≤ 100 nM
